In brackets after ≈: the same amount, converted by molar mass. Blank lines part the entries; values can stand above or below the molecule they belong to.
How the values were obtained:
[1] = tested on: S. aureus ATCC 13709; assay: MIC, S. aureus ATCC 13709; format: cell-based; details: for MIC: Staphylococcus aureus, ATCC13709, S. aureus, read-out: MIC Sa
[2] = tested on: E. coli ATCC 25922; assay: MIC, E. coli ATCC 25922; format: cell-based; details: for MIC: Escherichia coli, ATCC25922, E. coli, read-out: MIC Ec
[3] = Alamar Blue read after overnight incubation at 35° C.
[4] = S. aureus, Alamar Blue read after overnight incubation at 35° C.
[5] = E. coli, Alamar Blue read after overnight incubation at 35° C.

MIC [1, 3]: ≤ 0.5 µg/mL
MIC [2, 3]: ≤ 0.5 µg/mL
SMILES: CNc1cc(F)c(F)c2c1[nH]c1nc(Oc3cnc(CO)nc3)nc(N3C[C@H]4C[C@@H]3C[C@H]4N)c12 [Compound 5.14]

MIC Sa ([1]; Table 18, Sa): ≤ 0.5 µg/mL
MIC Ec ([2]; Table 18, Ec): ≤ 0.5 µg/mL
SMILES: CNc1cc(F)cc2c1[nH]c1nc(Oc3cnc4scnc4c3)nc(N3C[C@H]4C[C@@H]3C[C@H]4N)c12 [Compound 10.34]

MIC Sa ([1]; Table 18, Sa): ≤ 0.5 µg/mL
MIC Ec ([2]; Table 18, Ec): ≤ 0.5 µg/mL
SMILES: CNc1cc(F)cc2c1[nH]c1nc(Oc3cnc(C(C)O)c(Cl)c3)nc(N3CC4C[C@@H](N)C4C3)c12 (some centres unmarked) [Compound 10.17]

MIC Sa ([1]; Table 18, Sa): ≤ 0.5 µg/mL
MIC Ec ([2]; Table 18, Ec): 2 µg/mL (≈ 4.61 µM)
SMILES: CCc1cc(F)cc2c1[nH]c1nc(Oc3cnc(C)nc3)nc(N3C[C@H]4C[C@@H]3C[C@H]4N)c12 [Compound 10.89]

MIC Sa ([1]; Table 18, Sa): ≤ 0.5 µg/mL
MIC Ec ([2]; Table 18, Ec): ≤ 0.5 µg/mL
SMILES: CNc1cc(F)cc2c1[nH]c1nc(Oc3ccc4ccnn4c3)nc(N3C[C@H]4CCN[C@H]4C3)c12 [Compound 10.52]

MIC Sa ([1]; Table 18, Sa): ≤ 0.5 µg/mL
MIC Ec ([2]; Table 18, Ec): ≤ 0.5 µg/mL
SMILES: CNc1cc(F)cc2c1[nH]c1nc(Oc3cnc(/C(C)=N/OC)nc3)nc(N3C[C@H]4C[C@@H]3C[C@H]4N)c12 [Compound 10.27]

MIC Sa ([1]; Table 18, Sa): 1 µg/mL (≈ 2.38 µM)
MIC Ec ([2]; Table 18, Ec): 8 µg/mL (≈ 19 µM)
SMILES: CNc1cc(F)cc2c1[nH]c1nc(Cc3cnn(C)c3)nc(N3C[C@H]4C[C@@H]3C[C@H]4N)c12 [Compound 10.47]

MIC Sa [1, 4]: >16 µg/mL
MIC Ec [2, 5]: >16 µg/mL
SMILES: CNc1cc(F)c(F)c2c1[nH]c1nc(Oc3cncnc3)nc(N3CC4C(N)C4C3)c12 (centres unmarked) [Compound 6.19]

MIC Sa ([1]; Table 18, Sa): ≤ 0.5 µg/mL
MIC Ec ([2]; Table 18, Ec): 8 µg/mL (≈ 16.9 µM)
SMILES: CNc1cc(F)cc2c1[nH]c1nc(Oc3cnc(C)nc3)nc(N3CCC(S(N)(=O)=O)C3)c12 (centres unmarked) [Compound 10.104]

MIC Sa ([1]; Table 18, Sa): ≤ 0.5 µg/mL
MIC Ec ([2]; Table 18, Ec): ≤ 0.5 µg/mL
SMILES: CNc1cc(F)cc2c1[nH]c1nc(Oc3cnc(C)nc3)nc(N3CC4CC(OS(N)(=O)=O)C4C3)c12 (centres unmarked) [Compound 10.99]

The next lines start with the molecule.

SMILES: CNc1cccc2c1[nH]c1nc(Oc3cncnc3)cc(N3CCC(C(N)=O)C3)c12 (centres unmarked) [Compound 3.17]
MIC [1, 3]: 2 µg/mL (≈ 4.96 µM)
MIC [2, 3]: > 16 µg/mL

SMILES: CNc1cc(F)cc2c1[nH]c1nc(Sc3cnc4ccc[n+]([O-])c4c3)nc(N3CC(N)C4(CC4)C3)c12 (centres unmarked) [Compound 1.63]
MIC [1, 3]: ≤ 0.5 µg/mL
MIC [2, 3]: ≤ 0.5 µg/mL

SMILES: CNc1cccc2c1[nH]c1nc(Oc3cnc4c(c3)ncn4C)cc(N3CC4C(N)C4C3)c12 (centres unmarked) [Compound 3.36]
MIC [1, 3]: ≤ 0.5 µg/mL
MIC [2, 3]: 2 µg/mL (≈ 4.54 µM)

SMILES: CNc1cc(F)cc2c1[nH]c1nc(Oc3cnc(C)nc3)nc(N3CCC4(CCNC4)C3)c12 (centres unmarked) [Compound 4.126]
MIC Sa [1, 4]: ≤0.5 µg/mL
MIC Ec [2, 5]: 2 µg/mL (≈ 4.46 µM)

SMILES: CNc1cc(F)cc2c1[nH]c1nc(Sc3cnc4ccc[n+]([O-])c4c3)nc(N3CCC4(CC4N)C3)c12 (centres unmarked) [Compound 1.64]
MIC [1, 3]: ≤ 0.5 µg/mL
MIC [2, 3]: ≤ 0.5 µg/mL

SMILES: CNc1cc(F)cc2c1[nH]c1nc(Oc3cnc(C4CC4)nc3)nc(N3CC4CC(N)C4C3)c12 (centres unmarked) [Compound 4.240]
MIC Sa [1, 4]: ≤0.5 µg/mL
MIC Ec [2, 5]: ≤0.5 µg/mL

SMILES: CNc1cc(F)cc2c1[nH]c1nc(Oc3ccc4sc(N)nc4c3)nc(N3CC4CCC(N)C4C3)c12 (centres unmarked) [Compound 4.335]
MIC Sa [1, 4]: ≤0.5 µg/mL
MIC Ec [2, 5]: 4 µg/mL (≈ 7.93 µM)

SMILES: CNc1cccc2c1[nH]c1nc(Sc3cncc(S(=O)(=O)N(C)C)c3)nc(N3CC4C(N)C4C3)c12 (centres unmarked) [Compound 1.22]
MIC [1, 3]: 1 µg/mL (≈ 1.96 µM)
MIC [2, 3]: 8 µg/mL (≈ 15.7 µM)

SMILES: CNc1cccc2c1[nH]c1nc(Oc3cncc(F)c3)cc(N3CCC4(CNC4)C3)c12 [Compound 3.66]
MIC [1, 3]: 8 µg/mL (≈ 19.1 µM)
MIC [2, 3]: > 32 µg/mL

SMILES: CNc1cc(F)cc2c1[nH]c1nc(Oc3cnc(C4CC4)nc3)nc(N3CC4C(CN)C4C3)c12 (centres unmarked) [Compound 4.249]
MIC Sa [1, 4]: ≤0.5 µg/mL
MIC Ec [2, 5]: ≤0.5 µg/mL

SMILES: CNc1cc(F)cc2c1[nH]c1nc(Oc3cncc(F)c3)nc(N3CCC4(CC4N)C3)c12 (centres unmarked) [Compound 4.062]
MIC Sa [1, 4]: ≤0.5 µg/mL
MIC Ec [2, 5]: ≤0.5 µg/mL

SMILES: CNc1cc(F)cc2c1[nH]c1nc(Oc3cnc(C)nc3)nc(N3CC4NCCOC4C3)c12 (centres unmarked) [Compound 4.114]
MIC Sa [1, 4]: ≤0.5 µg/mL
MIC Ec [2, 5]: 2 µg/mL (≈ 4.44 µM)

SMILES: CNc1cc(F)cc2c1[nH]c1nc(Oc3cncc(-c4cncnc4)c3)nc(N3CC4C(N)C4C3)c12 (centres unmarked) [Compound 4.205]
MIC Sa [1, 4]: ≤0.5 µg/mL
MIC Ec [2, 5]: ≤0.5 µg/mL

SMILES: CNc1cc(F)cc2c1[nH]c1nc(Oc3cnc(C(C)(C)C)nc3)nc(N3CC4CC(N)C4C3)c12 (centres unmarked) [Compound 4.316]
MIC Sa [1, 4]: ≤0.5 µg/mL
MIC Ec [2, 5]: 1 µg/mL (≈ 2.1 µM)

SMILES: CNc1cccc2c1[nH]c1nc(Sc3cnc4ccc[n+]([O-])c4c3)nc(N3CC4CNC4C3)c12 (centres unmarked) [Compound 1.32]
MIC [1, 3]: ≤ 0.5 µg/mL
MIC [2, 3]: 4 µg/mL (≈ 8.5 µM)

SMILES: CNc1cc(F)cc2c1[nH]c1nc(Oc3cnc(C(C)C)nc3)nc(N3CCC4(CC4N)C3)c12 (centres unmarked) [Compound 4.235]
MIC Sa [1, 4]: ≤0.5 µg/mL
MIC Ec [2, 5]: ≤0.5 µg/mL

SMILES: CNc1cc(F)cc2c1[nH]c1nc(Oc3cnc(C)nc3)nc(N(C)C3CNC3)c12 [Compound 4.134]
MIC Sa [1, 4]: >16 µg/mL
MIC Ec [2, 5]: >16 µg/mL

SMILES: CNc1cc(F)cc2c1[nH]c1nc(Oc3cnc(NC4CC4)nc3)nc(N3CC[C@@H](N)C3)c12 [Compound 4.222]
MIC Sa [1, 4]: ≤0.5 µg/mL
MIC Ec [2, 5]: ≤0.5 µg/mL

Reference: patent US10865216B2, “Tricyclic Gyrase inhibitors” (MERCK SHARP & DOHME CORP., priority 2012, dated 2020)
